Source: PubChem BioAssay AID2060900 (Molecular Pharmacology Branch, DTP, NCI, 2025)

System: 521955-158-R2-J5-PDC complex spheroids, viability
Experiment: Anticancer human tumor 521955-158-R2-J5-PDC patient-derived pancreatic carcinoma cell line growth inhibition [RAS]
Conditions: for viability, T/C: stronger effect = lower value
Summary of the method: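 Agents were tested in combination matrices in half-log decrements from a top concentration at or near clinical Cmax (10 microM if undetermined). Targets were multi-cell spheroids of tumour lines plus HUVEC and MSC stromal cells.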

[1] = curve of first compound, second compound 0.00316 µM
[2] = curve of first compound, second compound 0.01 µM
[3] = curve of first compound, second compound 0.0316 µM
[4] = curve of first compound, second compound 0.1 µM
[5] = curve of first compound, second compound 0.316 µM
[6] = curve of first compound, second compound 1 µM
[7] = second compound 0.00316 µM, first compound 0.0316 µM
[8] = second compound 0.00316 µM, first compound 0.1 µM
[9] = second compound 0.00316 µM, first compound 0.316 µM
[10] = second compound 0.00316 µM, first compound 1 µM
[11] = second compound 0.00316 µM, first compound 3.16 µM
[12] = second compound 0.00316 µM, first compound 10 µM
[13] = second compound 0.01 µM, first compound 0.0316 µM
[14] = second compound 0.01 µM, first compound 0.1 µM
[15] = second compound 0.01 µM, first compound 0.316 µM
[16] = second compound 0.01 µM, first compound 1 µM
[17] = second compound 0.01 µM, first compound 3.16 µM
[18] = second compound 0.01 µM, first compound 10 µM
[19] = second compound 0.0316 µM, first compound 0.0316 µM
[20] = second compound 0.0316 µM, first compound 0.1 µM
[21] = second compound 0.0316 µM, first compound 0.316 µM
[22] = second compound 0.0316 µM, first compound 1 µM
[23] = second compound 0.0316 µM, first compound 3.16 µM
[24] = second compound 0.0316 µM, first compound 10 µM
[25] = second compound 0.1 µM, first compound 0.0316 µM
[26] = second compound 0.1 µM, first compound 0.1 µM
[27] = second compound 0.1 µM, first compound 0.316 µM
[28] = second compound 0.1 µM, first compound 1 µM
[29] = second compound 0.1 µM, first compound 3.16 µM
[30] = second compound 0.1 µM, first compound 10 µM
[31] = second compound 0.316 µM, first compound 0.0316 µM
[32] = second compound 0.316 µM, first compound 0.1 µM
[33] = second compound 0.316 µM, first compound 0.316 µM
[34] = second compound 0.316 µM, first compound 1 µM
[35] = second compound 0.316 µM, first compound 3.16 µM
[36] = second compound 0.316 µM, first compound 10 µM
[37] = second compound 1 µM, first compound 0.0316 µM
[38] = second compound 1 µM, first compound 0.1 µM
[39] = second compound 1 µM, first compound 0.316 µM
[40] = second compound 1 µM, first compound 1 µM
[41] = second compound 1 µM, first compound 3.16 µM
[42] = second compound 1 µM, first compound 10 µM
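Further: compound exposure lasted seven days before the viability read.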
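Wherever viability, T/C is given: spheroids also contain HUVEC endothelial cells and mesenchymal stem cells as stroma.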

`CC1(O)CCCC1n1c(=O)c(C(F)F)cc2cnc(NC3CCN(S(C)(=O)=O)CC3)nc21` (stereo not drawn) + C=CC(=O)N1CCN(c2nc(OCC3CCCN3C)nc3c(F)c(-c4nc(N)cc(C)c4C(F)(F)F)c(Cl)cc23)C(C)C1 gave an IC50 [1] of 5890 nM, an IC50 [2] of 6180 nM and an IC50 [3] of 6070 nM. For the same compound, the IC50 [4] was 6240 nM, the IC50 [5] was 6020 nM and the IC50 [6] was 6060 nM. It also gave a viability, T/C [7] of 93.1%, a viability, T/C [8] of 83% and a viability, T/C [9] of 81%. The viability, T/C [10] was 80.9%, the viability, T/C [11] was 121% and the viability, T/C [12] was 14.4%. It also gave a viability, T/C [13] of 85.9%, a viability, T/C [14] of 98% and a viability, T/C [15] of 78.6%. It also gave a viability, T/C [16] of 102%, a viability, T/C [17] of 112% and a viability, T/C [18] of 17.2%. The viability, T/C [19] was 87.7%, the viability, T/C [20] was 121% and the viability, T/C [21] was 80.2%. For the same compound, the viability, T/C [22] was 96.4%, the viability, T/C [23] was 108% and the viability, T/C [24] was 12.7%. For the same compound, the viability, T/C [25] was 135%, the viability, T/C [26] was 85.2% and the viability, T/C [27] was 75.2%. It also gave a viability, T/C [28] of 109%, a viability, T/C [29] of 111% and a viability, T/C [30] of 13%. For the same compound, the viability, T/C [31] was 123%, the viability, T/C [32] was 79.3% and the viability, T/C [33] was 78.3%. For the same compound, the viability, T/C [34] was 89.8%, the viability, T/C [35] was 116% and the viability, T/C [36] was 12.7%. For the same compound, the viability, T/C [37] was 127%, the viability, T/C [38] was 89.1% and the viability, T/C [39] was 69.5%. It also gave a viability, T/C [40] of 84%, a viability, T/C [41] of 119% and a viability, T/C [42] of 13%.
`CC(C)n1nc(-c2ccc3oc(N)nc3c2)c2c(N)ncnc21` was tested, and the viability, T/C (compound 0.000316 µM) was 94.1% [middle of 4 runs], the viability, T/C (compound 0.001 µM) was 101% [middle of 4 runs] and the viability, T/C (compound 0.00316 µM) was 96.2% [middle of 4 runs]. For the same compound, the viability, T/C (compound 0.01 µM) was 65.3% [middle of 4 runs], the viability, T/C (compound 0.0316 µM) was 44.3% [middle of 4 runs] and the viability, T/C (compound 0.1 µM) was 37% [middle of 4 runs]. The IC50 (curve of compound) was 21.3 nM [middle of 4 runs].
`CC(Nc1ccc2c(c1)OCCn1cc(N3C(=O)OCC3C(F)F)nc1-2)C(N)=O` (stereo not drawn) + C=CC(=O)N1CCN(c2nc(OCC3CCCN3C)nc3c(F)c(-c4nc(N)cc(C)c4C(F)(F)F)c(Cl)cc23)C(C)C1 gave an IC50 [1] of 1320 nM, an IC50 [2] of 419 nM and an IC50 [3] of 634 nM. The IC50 [4] was 833 nM, the IC50 [5] was 261 nM and the IC50 [6] was 180 nM. It also gave a viability, T/C [7] of 66.7%, a viability, T/C [8] of 70.9% and a viability, T/C [9] of 43%. It also gave a viability, T/C [10] of 64.7%, a viability, T/C [11] of 38.4% and a viability, T/C [12] of 19.8%. It also gave a viability, T/C [13] of 64.1%, a viability, T/C [14] of 58.3% and a viability, T/C [15] of 43.5%. The viability, T/C [16] was 52%, the viability, T/C [17] was 35.5% and the viability, T/C [18] was 22.9%. It also gave a viability, T/C [19] of 56.9%, a viability, T/C [20] of 71.3% and a viability, T/C [21] of 43.5%. For the same compound, the viability, T/C [22] was 53.3%, the viability, T/C [23] was 30.4% and the viability, T/C [24] was 19.7%. For the same compound, the viability, T/C [25] was 67.3%, the viability, T/C [26] was 54.8% and the viability, T/C [27] was 67.6%. For the same compound, the viability, T/C [28] was 45.6%, the viability, T/C [29] was 28.8% and the viability, T/C [30] was 19.4%. The viability, T/C [31] was 72.4%, the viability, T/C [32] was 90.1% and the viability, T/C [33] was 43.8%. It also gave a viability, T/C [34] of 42.7%, a viability, T/C [35] of 33.3% and a viability, T/C [36] of 22.5%. For the same compound, the viability, T/C [37] was 124%, the viability, T/C [38] was 53.4% and the viability, T/C [39] was 48.9%. For the same compound, the viability, T/C [40] was 35.4%, the viability, T/C [41] was 33% and the viability, T/C [42] was 19.8%.
Compound `CC(C)n1nc(-c2ccc3oc(N)nc3c2)c2c(N)ncnc21` + C=CC(=O)N1CCN(c2nc(OCC3CCCN3C)nc3c(F)c(-c4nc(N)cc(C)c4C(F)(F)F)c(Cl)cc23)C(C)C1 has an IC50 [1] of 25.5 nM, an IC50 [2] of 31.2 nM and an IC50 [3] of 25.7 nM. For the same compound, the IC50 [4] was 26.3 nM, the IC50 [5] was 22.2 nM and the IC50 [6] was 27.3 nM. For the same compound, the viability, T/C (second compound 0.00316 µM, first compound 0.000316 µM) was 103%, the viability, T/C (second compound 0.00316 µM, first compound 0.001 µM) was 77.8% and the viability, T/C (second compound 0.00316 µM, first compound 0.00316 µM) was 95.7%. It also gave a viability, T/C (second compound 0.00316 µM, first compound 0.01 µM) of 79.1%, a viability, T/C [7] of 43.5% and a viability, T/C [8] of 34.5%. It also gave a viability, T/C (second compound 0.01 µM, first compound 0.000316 µM) of 93.8%, a viability, T/C (second compound 0.01 µM, first compound 0.001 µM) of 113% and a viability, T/C (second compound 0.01 µM, first compound 0.00316 µM) of 95.9%. The viability, T/C (second compound 0.01 µM, first compound 0.01 µM) was 88%, the viability, T/C [13] was 49.3% and the viability, T/C [14] was 29.5%. For the same compound, the viability, T/C (second compound 0.0316 µM, first compound 0.000316 µM) was 76%, the viability, T/C (second compound 0.0316 µM, first compound 0.001 µM) was 134% and the viability, T/C (second compound 0.0316 µM, first compound 0.00316 µM) was 87.1%. It also gave a viability, T/C (second compound 0.0316 µM, first compound 0.01 µM) of 93.7%, a viability, T/C [19] of 40.5% and a viability, T/C [20] of 29.7%. It also gave a viability, T/C (second compound 0.1 µM, first compound 0.000316 µM) of 141%, a viability, T/C (second compound 0.1 µM, first compound 0.001 µM) of 141% and a viability, T/C (second compound 0.1 µM, first compound 0.00316 µM) of 109%. For the same compound, the viability, T/C (second compound 0.1 µM, first compound 0.01 µM) was 79.7%, the viability, T/C [25] was 42.6% and the viability, T/C [26] was 31.3%. It also gave a viability, T/C (second compound 0.316 µM, first compound 0.000316 µM) of 141%, a viability, T/C (second compound 0.316 µM, first compound 0.001 µM) of 134% and a viability, T/C (second compound 0.316 µM, first compound 0.00316 µM) of 91.3%. The viability, T/C (second compound 0.316 µM, first compound 0.01 µM) was 68.9%, the viability, T/C [31] was 42.9% and the viability, T/C [32] was 33.4%. It also gave a viability, T/C (second compound 1 µM, first compound 0.000316 µM) of 149%, a viability, T/C (second compound 1 µM, first compound 0.001 µM) of 90.5% and a viability, T/C (second compound 1 µM, first compound 0.00316 µM) of 87.6%. It also gave a viability, T/C (second compound 1 µM, first compound 0.01 µM) of 79.2%, a viability, T/C [37] of 42.4% and a viability, T/C [38] of 28.8%.
